Results from patent publication US11911356B2, “Regulation of mutant TERT by BRAF V600E/map kinase pathway through FOS/GABP in human cancer” (THE JOHNS HOPKINS UNIVERSITY, priority 2017, dated 2024).

Key:
TERT expression = TERT expression by qRT-PCR in human cancer cell lines treated with inhibitors; format: cell-based; settings: 0.2 uM AZD6244, 24 hours
Protocol: (§1) FIG. 2A-2G. BRAF V600E/MAPK pathway regulated TERT expression. (FIG. 2A) TERT expression was analyzed by qRT-PCR in cells treated with 0.5 uM PLX4032 or 0.2 uM AZD6244 for 24 hours (upper panel). The corresponding levels of phosphorylated ERK (p-ERK), total ERK (t-ERK), and beta-actin were detected by Western blotting (lower panel). The relative TERT mRNA expression levels were normalized to the DMSO control group. (FIG. 2B) Luciferase reporting assay of TERT promoter activities in K1 cells treated with DMSO or PLX4032 (0.5 uM). (FIG. 2C, 2D) Specific shRNA against BRAF were used to knock down BRAF in thyroid cancer cell lines BCPAP and K1 and melanoma cell line A375. Scramble shRNA was used as control. Cells were then subjected to Western blotting (FIG. 2C) and qRT-PCR (FIG. 2D). (FIG. 2E) Sequencing of the BRAF exon-15 in the parental and heterozygous BRAF-V600E knock-in SW48 cells. BRAF V600E was knocked in on one allele of BRAF by rAAV technology through homologous recombination and Cre recombinase of the Neo cassette. (FIG. 2F) Western blotting analyses of phosphorylation of ERK (p-ERK), total ERK (t-ERK), BRAF, and beta-actin in the parental and BRAF-V600E knock-in SW48 cells. (FIG. 2G) TERT promoter luciferase reporter assay in SW48 cells with/without BRAF V600E knock-in. **P<0.01, ***P<0.001, by 2-tailed Student's t test. P values are for the comparison of the indicated condition with DMSO (FIG. 2B), scramble (FIG. 2D), or BRAF-WT groups (FIG. 2G). All the values represent the average standard deviation (SD) of triplicate samples from a typical experiment. All the experiments were performed three times with similar results.
FIG. 3A-3C. MYC regulated TERT expression in a TERT promoter mutation-independent manner. (FIG. 3A) The four indicated cancer cell lines harboring BRAF V600E mutation were treated with 0.5 uM PLX4032 and/or 10 nM MYC-specific siRNA (siMYC) for 24 hours, which were then subjected to Western blotting (upper panel) and qRT-PCR (lower panel). The relative TERT mRNA expression was normalized to the control group. (FIG. 3B, 3C) Parental and BRAF V600E knock-in SW48 cells were treated with control siRNA (siControl) or MYC-specific siRNA (siMYC, 10 nM) for 48 h, followed by Western blotting (FIG. 3B) and luciferase reporter assays (FIG. 3C). *P<0.05, **P<0.01, ***P<0.001, by 2-tailed Student's t test. n.s., not significant. All the values represent the average standard deviation (SD) of triplicate samples from a typical experiment. Similar results were obtained in two additional independent experiments.
FIG. 9A-9B. Summarized effects of PLX4032 (FIG. 9A) and AZD6244 (FIG. 9B) on TERT mRNA expression. Each bar represents the average+SD of the cells with the same genotypes as follows: BRAF-mut and TERT-mut cell lines: BCPAP, K1, OCUT1, A375, and M14; BRAF-mut and TERT-wt cell lines: SK-MEL-1, SK-MEL-3, and RKO; BRAF-wt and TERT-mut cell lines: TPC1, KAT18, C643, CHL-1, SK-MEL-2, and Mewo; BRAF-wt and TERT-wt cell lines: FB1, WRO, and HTORI3. Compared with the corresponding control of DMSO, **P<0.01, ***P<0.001, by independent t-test.
The BRAF V600E-specific inhibitor PLX4032 (#S1267) and the MEK1 inhibitor AZD6244 (#S1008) were purchased from Selleck Chemicals (Houston, TX), dissolved in DMSO with a stock concentration of 10 mM and stored at −20° C. PLX4032 and AZD6244 were used to treat cells for 24 hours at 0.5 μM and 0.2 μM, respectively, where indicated in the manuscript. DMSO was used as the vehicle control.
Total RNA was extracted from cultured cells using the TRIzol reagent (#15596-018; Ambion, Life Technologies, Carlsbad, CA) and reverse-transcribed to cDNA using the SuperScript III First-Strand Synthesis System (#18080-051; Invitrogen, Life Technologies, Carlsbad, CA). Gene expression was analyzed in triplicate using FastStart Universal SYBR Green Master with ROX (#04913850001; Roche Applied Science, Indianapolis, IN) on the Applied Biosystems 7900HT Fast Real-Time PCR System. […]

ERK phosphorylation = experiment: Western blotting of phosphorylated ERK in inhibitor-treated cells; format: cell-based, human; settings: cells harboring wild-type BRAF; 0.2 uM AZD6244, 24 hours
Protocol: as §1, with “results. […]” for “results.”
Cells were lysed in the RIPA buffer (#sc-24948; Santa Cruz Biotechnology, Santa Cruz, CA) with protease inhibitor cocktail (#P8340; Sigma-Aldrich) and phosphatase inhibitor cocktail (#P0044; Sigma-Aldrich) and Western blotting analysis was performed as we previously described^54. […] Signals were detected by SuperSignal™ West Pico PLUS Chemiluminescent Substrate (#34579; Thermo Fisher Scientific). […]

With `Cn1cnc2c(F)c(Nc3ccc(Br)cc3Cl)c(C(=O)NOCCO)cc21` [AZD6244] the TERT expression (TERT expression; cells harboring BRAF V600E mutation) was “similarly inhibited TERT expression”, the TERT expression (TERT expression; cells harboring wild-type BRAF, TERT promoter mutant versus wild-type) was “inhibited TERT expression more in those harboring TERT promoter mutations” and the ERK phosphorylation (ERK phosphorylation) was “modest inhibitory effect”.
